In this assay the target is T1, recombinant RORγ Ligand Binding Domain (LBD) protein (Homo sapiens, UniProt P51449).
T1 construct: 6×His; GST
T1 sequence (P51449 269-508 limits assumed): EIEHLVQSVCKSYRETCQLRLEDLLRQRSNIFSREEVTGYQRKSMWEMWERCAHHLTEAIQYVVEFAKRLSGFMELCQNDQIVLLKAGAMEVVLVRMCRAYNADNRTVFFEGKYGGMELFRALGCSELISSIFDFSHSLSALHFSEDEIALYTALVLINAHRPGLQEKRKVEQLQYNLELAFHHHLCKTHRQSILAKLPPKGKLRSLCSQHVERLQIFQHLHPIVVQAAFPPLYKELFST
The experiment in a line: Radio-Ligand RORγ Binding Assay (Assay 1). To be noted: radio-ligand competition, RORγ LBD, read-out: Avg ROR Bind Ki. How it is done:
Radio-Ligand RORγ Binding Assay (Assay 1)
Compounds described herein were tested for ability to bind to RORγ in a cell-free competition assay with commercially available radio-ligand (RL), 25-hydroxy [26,27-^3H]-cholesterol (PerkinElmer, Cat. #NET674250UC), for a ligand binding site on a recombinant RORγ Ligand Binding Domain (LBD) protein expressed as a 6×His-Glutathione-S-Transferase (GST) fusion. The assay was performed in 96-well SPA plates (PerkinElmer, Cat. #1450-401) in 50 mM HEPES buffer, pH 7.4, containing 150 mM NaCl, 5 mM MgCl2, 10% (v/v) glycerol, 2 mM CHAPS, 0.5 mM 3-octylglucopyranoside and 5 mM DTT. Tested compounds were dissolved in DMSO, and semi-log (3.162×) serial dilutions of the compounds were prepared in the same solvent. Two μL of the DMSO solutions were mixed with 28 μL of 8.6 nM 25-hydroxy [26,27-^3H]-cholesterol and 50 μL of 24 nM RORγ LBD. The plate was shaken at 700 rpm for 20 min and incubated for 10 min at rt, after which 40 μL of poly-Lys YSi SPA beads (PerkinElmer, Cat. #RPNQ0010) were added to achieve 50 μg of the beads per well. The plate was incubated on an orbital shaker for 20 min and then for 10 min without agitation at rt. SPA signal for tritium beta radiation was registered on PerkinElmer Microbeta plate reader. […] The percent inhibition vs. concentration data were fit into a four-parameter model, and IC50 values were calculated from the fit as the concentrations corresponding to the inflection points on the dose-response curves. Inhibitory constants (Ki) were calculated using the following equation, where [RL] is the concentration in the assay and KD is a dissociation constant of 25-hydroxy [26,27-^3H]-cholesterol: […]

[1] abbreviates: 25-hydroxy [26,27-3H]-cholesterol.
The mark [2] stands for this setting: head without unit (Tables 15, 17).

The structures appear in SMILES notation. Where two headings read alike, the source gives them in different places.

A word on the Ki: it is the equilibrium dissociation constant of an inhibitor or competing ligand from its target.

`CC1c2ccc(C(=O)NCc3ccc(S(C)(=O)=O)cc3)cc2CCN1Cc1ccc(F)cc1` (racemic) [Hy2A-6, 2-(4-fluorobenzyl)-1-methyl-N-(4-(methylsulfonyl)benzyl)-1,2,3,4-tetrahydroisoquinoline-6-carboxamide]: the Ki under setting [1] was above 1000 nM.

Regarding `CC1c2ccc(C(=O)NCc3ccc(S(C)(=O)=O)cc3)cc2CCN1Cc1ccc(C#N)cc1` (racemic) [Hy2A-7, 2-(4-cyanobenzyl)-1-methyl-N-(4-(methylsulfonyl)benzyl)-1,2,3,4-tetrahydroisoquinoline-6-carboxamide], under setting [1], the Ki was above 1000 nM. Same read-out and setting: the value for `CCS(=O)(=O)c1ccc(CNC(=O)c2ccc3c(c2)CCN(Cc2ccc(F)cc2)C3C)cc1` (racemic) [Hy2A-8, N-(4-(ethylsulfonyl)benzyl)-2-(4-fluorobenzyl)-1-methyl-1,2,3,4-tetrahydroisoquinoline-6-carboxamide] was 100 to 1000 nM; that for `CCS(=O)(=O)c1ccc(CNC(=O)c2ccc3c(c2)CCN(Cc2ccc(C#N)cc2)C3C)cc1` (racemic) [Hy2A-10, 2-(4-cyanobenzyl)-N-(4-(ethylsulfonyl)benzyl)-1-methyl-1,2,3,4-tetrahydroisoquinoline-6-carboxamide] was 100 to 1000 nM; that for `CCS(=O)(=O)c1ccc(CNC(=O)c2ccc3c(c2)CCN(c2ncc(C#N)cn2)[C@@H]3C(C)C)cc1` (single isomer, unassigned) [Hy2A-1.1] was 100 to 1000 nM.

Take `CCS(=O)(=O)c1ccc(CNC(=O)c2ccc3c(c2)CCN(c2ncc(C#N)cn2)[C@H]3C(C)C)cc1` (single isomer, unassigned) [Hy2A-1.2]: under setting [1], the inhibition constant Ki is 100 to 1000 nM. On the same count and under the same terms, under `CCOC(=O)c1cnc(N2CCc3cc(C(=O)NCc4ccc(S(=O)(=O)CC)cc4)ccc3[C@@H]2C(C)C)nc1` (single isomer, unassigned) [Hy2A-4.1] stands 100 to 1000 nM; under `CCOC(=O)c1cnc(N2CCc3cc(C(=O)NCc4ccc(S(=O)(=O)CC)cc4)ccc3[C@H]2C(C)C)nc1` (single isomer, unassigned) [Hy2A-4.2], 100 to 1000 nM. On the same count and under the same terms, the value for `CCOC(=O)c1cnc(N2CCc3cc(C(=O)NCc4ccc(S(=O)(=O)CC)cc4)ccc3[C@H]2C(C)C)nc1C(F)(F)F` (single isomer, unassigned) [Hy2A-5.2] was 100 to 1000 nM. Still for that read-out and setting: the value for `CCS(=O)(=O)c1ccc(CNC(=O)c2ccc3c(c2)CCN(Cc2ncc(C)cn2)[C@@H]3C(C)C)cc1` (single isomer, unassigned) [Hy2A-12.2] was above 1000 nM. Take `CCS(=O)(=O)c1ccc(CNC(=O)c2ccc3c(c2)CCN(Cc2ccc(C#N)cc2)[C@@H]3C(C)C)cc1` (single isomer, unassigned) [Hy2A-15.2]: the Ki under setting [1] was below 100 nM.

Regarding `CCS(=O)(=O)c1ccc(CNC(=O)c2ccc3c(c2)CCN(Cc2ccc(C#N)cn2)[C@@H]3C(C)C)cc1` (single isomer, unassigned) [Hy2A-16.2], the Ki under setting [1] was 100 to 1000 nM. Still for that read-out and setting: the value for `CCS(=O)(=O)c1ccc(CNC(=O)c2ccc3c(c2)CCN(Cc2ccc(C#N)nc2)[C@@H]3C(C)C)cc1` (single isomer, unassigned) [Hy2A-17.2] was 100 to 1000 nM; that for `CCS(=O)(=O)c1ccc(CNC(=O)c2ccc3c(c2)C(C)(C)CN(Cc2cnc(C)cn2)[C@@H]3C(C)C)cc1` (single isomer, unassigned) [Hy2A-22.2] was 100 to 1000 nM; that for `CCS(=O)(=O)c1ccc(CNC(=O)c2ccc3c(c2)CCN(Cc2ccc(OC(F)F)nc2)[C@@H]3C(C)C)cc1` (single isomer, unassigned) [Hy2A-25.2] was 100 to 1000 nM. Same read-out and setting: the value for `CCS(=O)(=O)c1ccc(CNC(=O)c2ccc3c(c2)CCN(Cc2ncc(Br)cn2)[C@@H]3C(C)C)cc1` (single isomer, unassigned) [Hy2A-26.2] was 100 to 1000 nM. The same measure, in the same setting: under `CCC1c2ccc(C(=O)NC(CO)c3ccc(S(=O)(=O)CC)cc3)cc2CCN1CC1CCC(C(F)(F)F)CC1` (single isomer, unassigned) [Hy2A-28.3] stands 100 to 1000 nM. On to `CCS(=O)(=O)c1ccc(CNC(=O)c2cnc3c(c2)CCN(c2ncc(C#N)cn2)[C@H]3C(C)C)cc1` (single isomer, unassigned) [Hy2B-1.1], for which the Ki under setting [2] is above 1000 nM.

Regarding `CCS(=O)(=O)c1ccc(CNC(=O)c2cnc3c(c2)CCN(c2ncc(C#N)cn2)[C@@H]3C(C)C)cc1` (single isomer, unassigned) [Hy2B-1.2], the Ki under setting [2] is above 1000 nM. Same read-out and setting: under `CCS(=O)(=O)c1ccc(CNC(=O)c2cnc3c(c2)CCN(c2ncc(Cl)cn2)[C@H]3C(C)C)cc1` (single isomer, unassigned) [Hy2B-2.1] stands 100 to 1000 nM.

Consider `CCS(=O)(=O)c1ccc(CNC(=O)c2cnc3c(c2)CCN(c2ncc(Cl)cn2)[C@@H]3C(C)C)cc1` (single isomer, unassigned) [Hy2B-2.2], for which the Ki under setting [2] was above 1000 nM. On the same count and under the same terms, under `CCS(=O)(=O)c1ccc(CNC(=O)c2cnc3c(c2)CCN(c2ncc(C(F)(F)F)cn2)[C@H]3C(C)C)cc1` (single isomer, unassigned) [Hy2B-3.1] stands 100 to 1000 nM; under `CCS(=O)(=O)c1ccc(CNC(=O)c2cnc3c(c2)CCN(c2ncc(C(F)(F)F)cn2)[C@@H]3C(C)C)cc1` (single isomer, unassigned) [Hy2B-3.2], 100 to 1000 nM; under `CCOC(=O)c1cnc(N2CCc3cc(C(=O)NCc4ccc(S(=O)(=O)CC)cc4)cnc3[C@H]2C(C)C)nc1` (single isomer, unassigned) [Hy2B-4.1], above 1000 nM.

On to `CCOC(=O)c1cnc(N2CCc3cc(C(=O)NCc4ccc(S(=O)(=O)CC)cc4)cnc3[C@@H]2C(C)C)nc1` (single isomer, unassigned) [Hy2B-4.2], for which the Ki under setting [2] is above 1000 nM.

For the compound `CCOC(=O)c1cnc(N2CCc3cc(C(=O)NCc4ccc(S(=O)(=O)CC)cc4)cnc3[C@H]2C(C)C)nc1C(F)(F)F` (single isomer, unassigned) [Hy2B-5.1], the Ki under setting [2] fell in the range of 100 to 1000 nM. On to `CCOC(=O)c1cnc(N2CCc3cc(C(=O)NCc4ccc(S(=O)(=O)CC)cc4)cnc3[C@@H]2C(C)C)nc1C(F)(F)F` (single isomer, unassigned) [Hy2B-5.2], for which the Ki under setting [2] was in the range of 100 to 1000 nM. Same read-out and setting: under `CCS(=O)(=O)c1ccc(CNC(=O)c2cnc3c(c2)CCN(Cc2ccc(F)cc2)C3C(C)C)cc1` (single isomer, unassigned) [Hy2B-6.2] stands 100 to 1000 nM; under `CCS(=O)(=O)c1ccc(CNC(=O)c2cnc3c(c2)CCN(Cc2ccc(C#N)cc2)C3C(C)C)cc1` (single isomer, unassigned) [Hy2B-7.2], above 1000 nM.

In the case of `CCS(=O)(=O)c1ccc(CNC(=O)c2cnc3c(c2)CCN(Cc2ccc(Cl)cc2)C3C(C)C)cc1` (single isomer, unassigned) [Hy2B-8.2], under setting [2], the Ki lay within 100 to 1000 nM. Same read-out and setting: the value for `CCS(=O)(=O)c1ccc(CNC(=O)c2cnc3c(c2)CCN(C[C@H]2CC[C@H](C(F)(F)F)CC2)[C@@H]3C(C)C)cc1` (single isomer, unassigned) [Hy2B-9.2] was 100 to 1000 nM; that for `CCS(=O)(=O)c1ccc(CNC(=O)c2cnc3c(c2)CCN(C[C@H]2CC[C@H](C(F)(F)F)CC2)[C@@H]3C(C)C)nc1` (single isomer, unassigned) [Hy2B-10.2] was 100 to 1000 nM. In the case of `CCS(=O)(=O)c1ccc(CNC(=O)c2ccc3c(c2)CN(c2ncc(C#N)cn2)C[C@@H]3C(C)C)cc1` (single isomer, unassigned) [Hy7-2.2], the Ki under setting [1] lay within 100 to 1000 nM. In the case of `CCOc1cnc(N2Cc3cc(C(=O)NCc4ccc(S(=O)(=O)CC)cc4)ccc3[C@@H](C(C)C)C2)nc1` (single isomer, unassigned) [Hy7-5.2], under setting [1], the Ki lay in the range of 100 to 1000 nM.
